Measurements taken from US20140328944A1, “USE OF CTBP1 siRNA FOR THE TREATMENT OF GASTRIC CANCER” (CTI, priority 2013, published 2014).

Tested on: AGS and MKN45 gastric cancer cell lines
Experiment: MTS-based cell proliferation assay after siRNA transfection (drug dose-response)
Settings: CTBP1 siRNA (5 nM) vs untreated cells (WT) and control siRNA, 72 h drug incubation
Experimental: MKN45 cell lines were grown in RPM1-1640 media and AGS cell lines in F12K, both media were supplemented with 10% characterized fetal bovine serum (FBS) (Hyclone, Logan, Utah, USA) and 100 U /ml of Penicillin /Streptomycin (Gibco BRL, Gaithersburgh, Md., USA). Cells were grown in an incubator (NUAIRE, Plymouth, USA) at 37° C. with an atmosphere of 5% CO2 and 90% humidity. The drugs 5-FU, Cisplatin and Epirubicin were donated for this research by the Kampar Oncology Laboratory (Santiago, Chile).
In 6-well plates, 200,000 cells were cultured in their respective culture medium with 10% FBS for 24 h at 37° C. and 5% CO2 pressure. Then cells were washed once with PBS IX and 900 ul of their respective medium without serum and without antibiotic were added.
The cells were transfected with a pool of 4 siRNA Flexitube siRNA CTBP1 and siRNA control AllStars Negative Control (QIAGEN, Valencia, Calif., USA) at a concentration of 5 nM with 2.5 ul of Lipofectamine 2000 (Invitrogen, Carlsbad, Calif., USA). […]
24 hours after transfection, cells were seeded in 96 well plates at a concentration of 10,000 cells per well. […] The IC50 values were calculated using GraphPad 5.0 software. The results of the response to the drugs were expressed as mean±SD. […]

## O=c1[nH]cc(F)c(=O)[nH]1 [5-FU, 5-Fluorouracil]
  increase in sensitivity to the drug on silencing of CTBP1 with siRNA: approximately 6 times

## COc1cccc2c1C(=O)c1c(O)c3c(c(O)c1C2=O)C[C@@](O)(C(=O)CO)C[C@@H]3O[C@H]1C[C@H](N)[C@@H](O)[C@H](C)O1 [Epirubicin]
  increase in sensitivity to the drug on silencing of CTBP1 with siRNA: 12-17 times
